From patent US12291494B2, “Methods of treating fibrosis” (Nogra Pharma Limited, priority 2012, dated 2025)
Entries after “also recorded” stand apart in the source; their conditions may differ.

What was measured:
[1] = system: liver biochemical parameters in the serum of mice (AST, ALT, Gamma GT, Alkaline phosphatase); experiment: Liver blood enzyme analysis in serum; type: in vivo; conditions: 4 days after the last administration of CCl4
Protocol: The effect of oral administration of compound 34 (GED) and the specific CB2 agonist (JWH-133) was evaluated on different liver biochemical parameters in the serum of mice: hepatic enzymes ([…]), Gamma GT and the Alkaline phosphatase.

C57BL/6 mice = experiment: DSS chronic colitis (Ex. 7): microscopic colonic lesions (H&E, Masson's trichrome); type: in vivo
Protocol: The macroscopic colonic lesions including dilation, thickness and stenosis were scored by an independent observer, unaware of the mice treatment. Tissue specimens from the colon were dissected and immediately frozen or fixed in fresh 4% formaldehyde (FA)/PBS solution for 3 h at room temperature followed by the standard procedure for paraffin embedding. Paraffin embedded tissues transversally sectioned at 3 μm were subject to Hematoxylin/Eosin staining, to assess the inflammatory degree, and Masson trichrome to better assess connective tissue and fibrosis. […] The degree of intestinal inflammation was assessed according to the density and extent of chronic inflammatory infiltrate, loss of goblet cells, and bowel wall thickening. […]
Intestinal fibrosis was scored as absent, mild, or severe, depending on the density and extent of trichrome-positive connective tissue staining and disruption of tissue architecture.

TGF-β1 = experiment: DSS intestinal fibrosis study: Western blot of colon, TGF-β1; type: in vivo, mice; conditions: whole colon, OD normalized with GAPDH, expressed as percentage of control groups; DSS 153.6 ± 26.25
Protocol: (§1) For the Western blot analysis, 0.5 cm of frozen colonic samples were homogenized in RIPA Buffer containing 50 mM Tris HCl pH 7.6, 150 mM NaCl, 1.5 mM MgCl2, 5 mM EDTA, 1% Triton-X and 10% Glycerol, supplemented with 100 mM Sodium Fluoride (NaF), 2 mM Sodium Orthovanadate (Na3VO4), 10 mM Sodium Pyrophosphate (NaPPi), 1 mM phenylmethanesulphone (PMSF) and a classical protease-inhibitor cocktail containing 10 μg/mL Leupeptin and Aprotinin.
(§2) For each sample, 30 μg of protein was separated by PAGE and electroblotted. Nitrocellulose membranes (100% pure) were incubated (according with a specific protocol for each antibody) with primary antibodies directed against CTGF, Collagen-I and GAPDH (purchased from Abcam, Cambridge, UK; 1:1000 for 2 h at RT), diluted in 5% non-fat milk in 0.1% TBS-t. […] Optical density of target bands was determined using a computer-assisted densitometer and the ImageJ public domain software (W. S., Rasband, ImageJ, U. S. National Institutes of Health, Bethesda, MD; http://rsb.info.nih.gov/ij/, 1997-2011). Tissue levels were expressed as units of Optical Density (OD) per quantity of total proteins, normalized with internal control GAPDH and the results were expressed as percentage of control groups.

IL-13 = experiment: DSS intestinal fibrosis study: Western blot of colon, IL-13; type: in vivo, mice; conditions: whole colon, OD normalized with GAPDH, expressed as percentage of control groups; DSS 189.5 ± 28.71; listed as GED
Protocol: as §1, §2

C57bl6 mice = experiment: DSS intestinal fibrosis study (Ex. 5/6): colon ratio weight/size; type: in vivo
Protocol: This example describes an experiment to evaluate the effect of compound 34 on intestinal fibrosis. Chronic colitis was induced in C57bl6 mice by 3 cycles of 2.5% DSS (40,000-50,000 MW, TdB consultancy AB, Sweden) dissolved in sterile drinking water for 5 days followed by 7 days of regular drinking water.
Compound 34 was used at its optimal dosage (30 mM) and administered by oral gavage daily after the second cycle of DSS and until euthanasia. Mice receiving DSS were checked twice a week for development of colitis by monitoring body weight. Euthanasia of mice was performed one week after the third cycle of DSS (see FIG. 5). Evaluation of the size and weight of the colon was evaluated post mortem.
Intestinal fibrosis is characterized by a shortening and thickening of the colon and adherences. The measure of the ratio weight/size of the colon is an indicator of the level of inflammation and fibrosis. […] Compound 34 causes a 34% reduction in the profibrotic effect of DSS leading to a significant decrease ratio weight/size of the colon of 38.13±7.82 vs 44.98±6.31 (p<0.05) compared to DSS mice receiving the vehicle (FIG. 6A). Accordingly, it reduces the morphological signs of fibrosis such as the shortening and the thickening of the colon and it decreases the collagen deposit in the colon (FIG. 6B).

Collagen-1 = experiment: Liver gene expression by quantitative Real Time PCR: collagen-1; type: in vivo, mice; conditions: liver mRNA, normalized to β-actin, CCl4 group 138.12 ± 34.68
Protocol: The effect of administration of compound 34 (GED) and the specific CB2 agonist (JWH-133) was evaluated on the level of gene expression of cytokines (IL-1β, TNF-α) and genes involved in the mechanism of fibrosis by quantitative Real Time PCR.
Total RNA was isolated from livers using Rneasy kit (Macherey Nagel, Hoerdt, France) according to the manufacturer's instructions. RNA quantification was performed using spectrophotometry. After treatment at 37° C. for 30 min with 20-50 units of RNase-free DNase I (Roche Diagnostics Corporation, Indianapolis, IN, USA), oligo-dT primers (Roche Diagnostics Corporation, Indianapolis, USA) were used to synthesize single-stranded cDNA. mRNAs were quantified using SYBR green Master Mix (Applera, Courtaboeuf, France) with murine specific oligonucleotides (see Table 2) in a GeneAmp Abiprism 7000 (Applera, Courtaboeuf, France). In each assay, calibrated and no-template controls were included. Each sample was run in triplicate. SYBR green dye intensity was analyzed using the Abiprism 7000 SDS software (Applera, Courtaboeuf, France). All results were normalized to the unaffected housekeeping gene β-actin.

α-SMA = experiment: DSS intestinal fibrosis study: Western blot of colon, α-SMA; type: in vivo, mice; conditions: whole colon, OD normalized with GAPDH, expressed as percentage of control groups; DSS 125.4 ± 19.45
Protocol: as §1, §2

SMILES: COC(Cc1ccc(N)cc1)C(=O)O (racemic) [Compound 34, (±)-2-methoxy-3-(4′-aminophenyl) propionic acid]
- enhancement of blood liver enzymes (AST, ALT, Alk P) / liver toxicity [1]: not associated with any enhancement of blood liver enzymes; also recorded: without liver toxicity
- intestinal wall architecture (H&E, Masson's trichrome) (C57BL/6 mice; FIG. 12 legend, result in words): restoring of normal intestinal wall architecture
- Total microscopic score (maximum 10) (C57BL/6 mice; daily oral GED, DSS 6.45±0.82, FIG. 12): 3.36±0.55
- TGF-β1 (Western blot) (TGF-β1): 130.5 ± 28.02
- IL-13 (Western blot) (IL-13): 88.88±14.01
- ratio weight/size of the colon (C57bl6 mice; compound 34 30 mM 200 uL oral gavage daily day 13-36, DSS vehicle 44.98±6.31, control 20.11±3.91): 38.13±7.82
- reduction in the profibrotic effect of DSS (colon ratio weight/size) (C57bl6 mice; compound 34 30 mM oral gavage): 34%
- Collagen-1 (Collagen-1): 75.15 ± 5.23, p = 0.03
- Collagen-1 (Collagen-1; listed as compound 34): 42.81±14.81
- α-SMA (Western blot) (α-SMA): 97.88 ± 15.66
